One data set has as its system Streptomyces albus. The experiment in a line: Antimicrobial activity against Streptomyces albus SHBC D11158 assessed as reduction in bacterial growth incubated for 24 hrs by two-fold broth dilution method. The class given is functional.
Data set [1] has as its system Staphylococcus aureus. The experiment in a line: Antimicrobial activity against methicillin resistant Staphylococcus aureus clinical isolate MRS1 assessed as reduction in bacterial growth incubated for 24 hrs by two-fold broth dilution method. The class given is functional.
Data set [2] relates to Staphylococcus aureus. Put plainly: Antimicrobial activity against methicillin resistant Staphylococcus aureus clinical isolate MRS207 assessed as reduction in bacterial growth incubated for 24 hrs by two-fold broth dilution method. The class given is functional.
Data set [3] can be described thus: Cytotoxicity against African green monkey Vero E6 cells assessed as reduction in cell viability measured after 24 hrs by CCK-8 method. The class given is toxicity, cell-based, Chlorocebus sabaeus, Vero C1008.
In data set [4] the test system is Staphylococcus aureus. Put plainly: Antimicrobial activity against methicillin resistant Staphylococcus aureus clinical isolate MRS108 assessed as reduction in bacterial growth incubated for 24 hrs by two-fold broth dilution method. The class given is functional.
A short description of data set [5]: Cytotoxicity against HEK293 cells assessed as reduction in cell viability measured after 24 hrs by CCK-8 method. The class given is toxicity, cell-based. As to conditions: human.
The nature of data set [6]: Selectivity index, ratio of IC50 for African green monkey Vero E6 cells to MIC for Staphylococcus aureus ATCC6538. The following applies: read-out: Selectivity Index. The class given is toxicity.
Data set [7] has as its system Staphylococcus aureus. Put plainly: Antimicrobial activity against methicillin resistant Staphylococcus aureus clinical isolate MRS121 assessed as reduction in bacterial growth incubated for 24 hrs by two-fold broth dilution method. The class given is functional.
The test system of data set [8] is Staphylococcus aureus. Put plainly: Antimicrobial activity against methicillin resistant Staphylococcus aureus clinical isolate MRS97 assessed as reduction in bacterial growth incubated for 24 hrs by two-fold broth dilution method. The class given is functional.
Data set [9] concerns Staphylococcus aureus. Put plainly: Antimicrobial activity against methicillin resistant Staphylococcus aureus clinical isolate MRS153 assessed as reduction in bacterial growth incubated for 24 hrs by two-fold broth dilution method. The class given is functional.
Another data set has as its system HeLa. Put plainly: Cytotoxicity against human HeLa cells assessed as reduction in cell viability measured after 24 hrs by CCK-8 method. The class given is functional, cell-based.
Data set [10] is described as follows: Selectivity index, ratio of HC50 for rabbit Red blood cell to MIC for Staphylococcus aureus ATCC6538. The class given is toxicity. The following applies: red blood cells (erythrocytes), read-out: Selectivity Index.
Data set [11] concerns Staphylococcus aureus. Put plainly: Antimicrobial activity against methicillin resistant Staphylococcus aureus clinical isolate MRS273 assessed as reduction in bacterial growth incubated for 24 hrs by two-fold broth dilution method. The class given is functional.
The subject of data set [12] is Staphylococcus aureus. Put plainly: Antimicrobial activity against methicillin resistant Staphylococcus aureus clinical isolate MRS200 assessed as reduction in bacterial growth incubated for 24 hrs by two-fold broth dilution method. The class given is functional.
Data set [13] deals with Staphylococcus aureus. Put plainly: Antimicrobial activity against Staphylococcus aureus ATCC6538 assessed as reduction in bacterial growth incubated for 24 hrs by two-fold broth dilution method. The class given is functional.
Data set [14] can be described thus: Hemolytic activity in rabbit Red blood cell assessed as hemolysis incubated for 1 hr by two-fold microdilution method. The class given is toxicity, cell-based, Oryctolagus cuniculus, Erythrocyte. The following applies: red blood cells (erythrocytes).
The test system of data set [15] is Staphylococcus aureus. The experiment in a line: Induction of drug resistance in Staphylococcus aureus ATCC6538 assessed as change in MIC measured after 10 passages. The class given is functional.
In data set [16] the test system is Staphylococcus aureus. The experiment in a line: Antimicrobial activity against methicillin resistant Staphylococcus aureus clinical isolate MRS70 assessed as reduction in bacterial growth incubated for 24 hrs by two-fold broth dilution method. The class given is functional.
Data set [17] in a line: Cytotoxicity against human HaCaT cells assessed as reduction in cell viability measured after 24 hrs by CCK-8 method. The class given is toxicity, cell-based.
Data set [18] has as its system Staphylococcus aureus. The experiment in a line: Antimicrobial activity against Staphylococcus aureus N315 assessed as reduction in bacterial growth incubated for 24 hrs by two-fold broth dilution method. The class given is functional.
For data set [19], the system named is Staphylococcus aureus. The experiment in a line: Antimicrobial activity against methicillin resistant Staphylococcus aureus clinical isolate MRS23 assessed as reduction in bacterial growth incubated for 24 hrs by two-fold broth dilution method. The class given is functional.
Data set [20] concerns Staphylococcus aureus. The experiment in a line: Antimicrobial activity against methicillin resistant Staphylococcus aureus clinical isolate MRS152 assessed as reduction in bacterial growth incubated for 24 hrs by two-fold broth dilution method. The class given is functional.
The test system of data set [21] is Staphylococcus aureus. The experiment in a line: Antimicrobial activity against methicillin resistant Staphylococcus aureus clinical isolate MRS84 assessed as reduction in bacterial growth incubated for 24 hrs by two-fold broth dilution method. The class given is functional.
Another data set has as its system A549. The experiment in a line: Cytotoxicity against human A549 cells assessed as reduction in cell viability measured after 24 hrs by CCK-8 method. The class given is functional, cell-based. The following applies: A549, 24 h.
In the next data set the test system is Staphylococcus hominis. Put plainly: Antimicrobial activity against methicillin-resistant Staphylococcus hominis assessed as reduction in bacterial growth incubated for 24 hrs by two-fold broth dilution method. The class given is functional.

≈ marks a conversion by molar mass, not a printed value. Calls of active or inactive are those of the source. The rule behind the calls is not given here.

Regarding `O=C(CCC(F)(F)F)N(Cc1cc2ccccc2s1)c1cc(-c2ccc(Cl)cc2)ccc1O`, the minimal inhibitory concentration (MIC) in the data set with Streptomyces albus came out at 4 µg/mL (≈ 8.16 µM); in the data set on Staphylococcus aureus [1], 6 µg/mL (≈ 12.2 µM); with Staphylococcus aureus [2] it was 16 µg/mL (≈ 32.7 µM); in the data set with Staphylococcus aureus [4], 6 µg/mL (≈ 12.2 µM); in the data set with Staphylococcus aureus [7] it was 3 µg/mL (≈ 6.12 µM); with Staphylococcus aureus [8], 3 µg/mL (≈ 6.12 µM). Moreover, the MIC turned out to be 6 µg/mL (≈ 12.2 µM) in the data set on Staphylococcus aureus [9]; 16 µg/mL (≈ 32.7 µM) in the data set on Staphylococcus aureus [11]; 16 µg/mL (≈ 32.7 µM) with Staphylococcus aureus [12]; 1 µg/mL (≈ 2.04 µM) with Staphylococcus aureus [13]; 6 µg/mL (≈ 12.2 µM) with Staphylococcus aureus [16]; 1 µg/mL (≈ 2.04 µM) in the data set with Staphylococcus aureus [18]. Further, the minimal inhibitory concentration (MIC) with Staphylococcus aureus [19] was found to be 16 µg/mL (≈ 32.7 µM); in the data set on Staphylococcus aureus [20] it was 6 µg/mL (≈ 12.2 µM); with Staphylococcus aureus [21], 3 µg/mL (≈ 6.12 µM); with Staphylococcus hominis, 4 µg/mL (≈ 8.16 µM). Also, the IC50 at 24 h in [3] was 21.5 µg/mL (≈ 43.8 µM); in data set [5] it was more than 25 µg/mL; in data set [17], 13.8 µg/mL (≈ 28.2 µM). The selectivity ratio is 21 in data set [6] and more than 1000 in [10]. In addition, the half-maximal inhibitory concentration (IC50) worked out at 22.8 µg/mL (≈ 46.6 µM) with HeLa and 16.2 µg/mL (≈ 33.1 µM) with A549. Further, in [14], the 50% haemolytic concentration (HC50) at 1 h was found to be 1920 µg/mL. For the same molecule, in the data set with Staphylococcus aureus [15], the result was Active.
In the case of `CCCCC(=O)N(Cc1cc2ccccc2c2ccccc12)c1ccc2ccccc2c1O`, the MIC was 62.5 µg/mL (≈ 144 µM) in the data set with Staphylococcus aureus [13] and 125 µg/mL (≈ 288 µM) with Staphylococcus aureus [18].
The like results for `CCCCC(=O)N(Cc1cc2ccccc2o1)c1ccc2ccccc2c1O` were, in that order, 31.2 µg/mL (≈ 83.7 µM) and 62.5 µg/mL (≈ 167 µM).
The like results for `O=C(CCC(F)(F)F)N(Cc1cc2ccccc2s1)c1ccc(-c2ccccc2)c(O)c1` were, in that order, 2 µg/mL (≈ 4.39 µM) and more than 16 µg/mL.
The like results for `CCCCC(=O)N(Cc1ccc2c(c1)CCO2)c1ccc2ccccc2c1O` were, in that order, 62.5 µg/mL (≈ 166 µM) and 62.5 µg/mL (≈ 166 µM).
For `CCCCC(=O)N(Cc1ccc2c(c1)OCO2)c1ccc2ccccc2c1O`, the MIC with Staphylococcus aureus [13] and in the data set with Staphylococcus aureus [18] was 31.2 µg/mL (≈ 82.8 µM) throughout.
Take `CCCCC(=O)N(Cc1ccc2c(c1)OCCO2)c1ccc2ccccc2c1O`: the MIC in the data set on Staphylococcus aureus [13] stood at 31.2 µg/mL (≈ 79.8 µM); with Staphylococcus aureus [18], 62.5 µg/mL (≈ 160 µM).
The like results for `O=C(CCC(F)(F)F)N(Cc1cc2ccccc2s1)c1cc(-c2ccncc2)ccc1O` were, in that order, more than 16 µg/mL and more than 16 µg/mL.
With `CCCCC(=O)N(Cc1cc2ccccc2s1)c1ccc2ccccc2c1O`, the MIC with Staphylococcus aureus [13] and with Staphylococcus aureus [18] was 15.6 µg/mL (≈ 40.1 µM) each time.
Consider `O=C(CCC(F)(F)F)N(Cc1cc2ccccc2s1)c1ccc2ccccc2c1O`, for which the minimal inhibitory concentration (MIC) in the data set on Staphylococcus aureus [13] and with Staphylococcus aureus [18] was 2 µg/mL (≈ 4.66 µM) in each case.
Regarding `COc1ccc(-c2ccc(O)c(N(Cc3cc4ccccc4s3)C(=O)CCC(F)(F)F)c2)cc1`, the minimum inhibitory concentration (MIC) was more than 32 µg/mL with Streptomyces albus; more than 16 µg/mL in the data set on Staphylococcus aureus [1]; more than 16 µg/mL with Staphylococcus aureus [2]; more than 16 µg/mL in the data set on Staphylococcus aureus [4]; 16 µg/mL (≈ 33 µM) in the data set with Staphylococcus aureus [7]; 16 µg/mL (≈ 33 µM) in the data set on Staphylococcus aureus [8]. The minimal inhibitory concentration (MIC) in the data set on Staphylococcus aureus [9] was 16 µg/mL (≈ 33 µM); in the data set with Staphylococcus aureus [11], 16 µg/mL (≈ 33 µM); in the data set on Staphylococcus aureus [12] it was 16 µg/mL (≈ 33 µM); in the data set with Staphylococcus aureus [13] it was 1 µg/mL (≈ 2.06 µM); with Staphylococcus aureus [16], more than 16 µg/mL; with Staphylococcus aureus [18] it was 1 µg/mL (≈ 2.06 µM). In addition, the MIC in the data set on Staphylococcus aureus [19] was more than 16 µg/mL; in the data set with Staphylococcus aureus [20], more than 16 µg/mL; with Staphylococcus aureus [21] it was more than 16 µg/mL; in the data set on Staphylococcus hominis it was more than 32 µg/mL.
Consider `COc1cc(-c2ccccc2)ccc1N(Cc1cc2ccccc2s1)C(=O)CCC(F)(F)F`, for which the minimal inhibitory concentration (MIC) with Staphylococcus aureus [13] and in the data set with Staphylococcus aureus [18] was more than 16 µg/mL each time.
In the case of `O=C(CCC(F)(F)F)N(Cc1cc2ccccc2s1)c1c(O)cccc1-c1ccccc1`, the minimal inhibitory concentration (MIC) in the data set on Staphylococcus aureus [13] is 2 µg/mL (≈ 4.39 µM); in the data set with Staphylococcus aureus [18] it was 6 µg/mL (≈ 13.2 µM).
`O=C(CCC(F)(F)F)N(Cc1cc2ccccc2s1)c1cc(-c2ccccc2C(F)(F)F)ccc1O`: the minimal inhibitory concentration (MIC) with Staphylococcus aureus [13] and in the data set with Staphylococcus aureus [18] was more than 16 µg/mL in each case.
Consider `O=C(CCC(F)(F)F)N(Cc1cc2ccccc2s1)c1cc(-c2cncnc2)ccc1O`, for which the minimal inhibitory concentration (MIC) in the data set on Staphylococcus aureus [13] and in the data set with Staphylococcus aureus [18] was more than 16 µg/mL each time.

Source of the values: ChEMBL document CHEMBL5537201, “Discovery of Unique Bis-Substituted Aromatic Amide Derivatives as Novel Highly Potent Antibiotics for Combating Methicillin-Resistant Staphylococcus aureus (MRSA)” (J Med Chem, 2024).
